Reference: patent US20240082238A1, “COMPOSITIONS AND METHODS FOR TREATING CANCER” (UNIVERSITY OF IOWA RESEARCH FOUNDATION, priority 2021, published 2024)
Several values for one entry are separate records, joined by “and”; a condition that tells them apart may be missing. Identical values can stand only once.

What was measured:
Hec50co tumors = test: Antitumor efficacy study, peritumoral SC injection; format: in vivo, athymic Nu/Nu mice
Procedure: Antitumor efficacy study following subcutaneous injection (SC) at the tumor site (peritumoral). Female athymic Nu/Nu mice were subcutaneously challenged with Hec50co cells (1×10^6 cells/mouse). When mice had palpable tumors, they were randomly distributed into 3 groups: PBS group (n=3), PTX group (n=4), and PTX+CIP2b group (n=4). Then, treatments were administered subcutaneously near the tumor site (i.e., peritumorally) in five doses on days 26, 30, 33, 37, and 40 post-tumor challenge. Each dose consisted of 200 μL of either PBS, 5 mg/kg PTX (Paclitaxel concentrate diluted in DPBS), or 5 mg/kg PTX+5 mg/kg CIP2b (CIP2b in DPBS:Tween-80:ethanol 85:10:5; further dilution was made using DPBS). Body weights and tumor volumes (using Equation 2) were monitored twice a week for up to 2 weeks after the last dose (i.e., up to day 53 post-tumor challenge). On the last day of the study (day 53 post-tumor challenge), mice were euthanized, and tumors were collected and their weights were measured.

Hec50co cells = test: Cell cycle assay (PI flow cytometry); format: cell-based, human; conditions: 24 h
Procedure: Cell Cycle assay. Hec50co cells were seeded at […] cells per well in 6-well plates for 48 h in complete medium. The medium was then removed and replaced with PTX (1, 5, and 10 nM), CIP2b (10 μM), combinations of PTX with CIP2b, or with a fresh complete medium. Cells were incubated with the treatments for 24 h, then the medium was removed, and the cells were washed twice with Dulbecco's Phosphate-Buffered Saline (DPBS 1×, ThermoFisher Scientific), trypsinized (0.4 mL/well), and collected by centrifugation (230 xg, 5 min). Cells were then fixed using 70% ethanol stored at 4° C. for 30 min, then incubated with 100 μg/mL RNase A in 2% v/v NP-40 Surfact-Amps® solution (0.5 mL/sample) for 30 min at 37° C. Then, PI (50 μg/mL, 0.5 mL/sample) was added prior to analysis by flow cytometry (FACScan, BD Biosciences) using CellQuest software (Ver. 3.3). The data were further analyzed by ModFit LT (Ver. 5.0) to calculate the percent of cells in each phase of the cell cycle (i.e., G0/G1, S, G2/M).
In vitro activity of CIP2b NPs. […] An equivalent quantity of blank NPs was also tested to account for the effect of the PLGA NPs alone without CIP2b. […] An equivalent quantity of blank NPs was also added, either alone or with PTX-OG. Samples were then analyzed using a flow cytometer, as described above.

human Topo I = molecular target: T1, human Topo I (Homo sapiens, UniProt P11387); test: Topoisomerase I inhibition assay (plasmid-based); format: biochemical; conditions: drug final concentration 100 μM
T1 construct: purchased TopoGEN Inc. TG1015-1A
T1 sequence (P11387 1-765): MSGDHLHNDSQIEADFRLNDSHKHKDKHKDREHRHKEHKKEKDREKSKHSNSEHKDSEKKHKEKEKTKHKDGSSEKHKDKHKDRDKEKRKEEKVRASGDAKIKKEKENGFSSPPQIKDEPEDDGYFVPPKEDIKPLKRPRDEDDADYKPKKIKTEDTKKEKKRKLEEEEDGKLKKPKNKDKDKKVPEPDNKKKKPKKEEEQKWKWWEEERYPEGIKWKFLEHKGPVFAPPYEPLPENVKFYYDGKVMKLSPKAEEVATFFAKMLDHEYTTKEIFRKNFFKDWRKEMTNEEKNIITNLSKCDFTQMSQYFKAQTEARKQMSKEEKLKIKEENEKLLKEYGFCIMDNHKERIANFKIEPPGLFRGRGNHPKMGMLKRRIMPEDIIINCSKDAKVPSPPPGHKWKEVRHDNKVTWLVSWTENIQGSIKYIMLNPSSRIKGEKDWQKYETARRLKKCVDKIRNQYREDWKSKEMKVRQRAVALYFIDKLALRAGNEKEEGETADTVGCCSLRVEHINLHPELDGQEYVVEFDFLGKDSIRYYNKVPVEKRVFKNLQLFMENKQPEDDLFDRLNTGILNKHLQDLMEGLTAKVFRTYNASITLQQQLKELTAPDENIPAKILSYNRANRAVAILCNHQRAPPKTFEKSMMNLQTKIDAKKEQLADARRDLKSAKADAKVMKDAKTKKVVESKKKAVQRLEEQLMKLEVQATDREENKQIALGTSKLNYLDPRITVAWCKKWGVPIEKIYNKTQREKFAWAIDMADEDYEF
Procedure: Topoisomerase I inhibition assay. A plasmid-based Topo I assay (Cat. No. TG1015-1A, TopoGEN Inc., Buena Vista, CO) was performed according to the manufacturer's instructions. Briefly, 1 μL of the test compounds (PTX, CIP, CIP2b, or CAM) at a concentration of 2 mM, was mixed with 2 μL of the reaction buffer (10× tris-glycine-SDS), and deionized water was added to make 18 μL solution. This was followed by adding 1 μL of supercoiled DNA (SC DNA) and 1 μL of human Topo I (10 U/μL) (drug final concentration was 100 μM). Also, SC DNA±Topo I was used as a control (i.e., not containing drugs). In addition, relaxed DNA was added as another control in this assay. Samples were incubated on a heating block (Isotemp 125 D Digital Heat Block, ThermoFisher Scientific) set at 37° C. for 30 minutes. Then, the reaction was stopped by adding a 5× stop buffer. Samples were then loaded directly into the wells of a 1% agarose gel (Research Products International, Mount Prospect, IL). The gel was run at 150 V until the dye front had traveled approximately 5 cm (run time was approximately 2 hours). The gel was then stained with 1 μg/mL ethidium bromide in deionized water for 15 minutes, and this was followed by de-staining (washing) with deionized water for 30 min before imaging. The image was then taken using an Invitrogen iBright CL 1500 Imaging System (ThermoFisher Scientific). The intensity of the final bands in the gel was quantified using ImageJ, and the results are expressed as the percentage of Topo I inhibition.

CC(=O)O[C@H]1C(=O)[C@@]2(C)[C@H]([C@H](OC(=O)c3ccccc3)[C@]3(O)C[C@H](OC(=O)[C@H](O)[C@@H](NC(=O)c4ccccc4)c4ccccc4)C(C)=C1C3(C)C)[C@]1(OC(C)=O)CO[C@@H]1C[C@@H]2O [PTX, paclitaxel]
average weight of tumors (Hec50co tumors; day 53, SC treatment): did not show a significant difference against either the untreated group or the combination group
average tumor volumes vs PBS (Hec50co tumors; day 53, 5 mg/kg PTX SC, five doses): smaller than PBS control mice albeit not significantly
cell population at the G2/M phase (Hec50co cells; 5 nM PTX): approximately 46%
cell population at the G2/M phase (Hec50co cells; 10 nM PTX): ~70% and 69.5%
Topo I inhibitory activity (gel) (human Topo I): neither PTX nor CIP did inhibit Topo I
